Experimental data reported in paper PMC6917776, “Discovery of a chemical probe for PRDM9” (Nature Communications, 2019).
Several values for one entry are separate records, joined by “and”; a condition that tells them apart may be missing. Equal values may be shown once.

Tests used:
PRDM9 [1] = molecular target: T1, PRDM9 (Homo sapiens, UniProt Q9NQV7); experiment: DSF thermal stabilisation, PRDM selectivity and titration; type: binding
Method: DSF measurements were performed as previously described[21] using a Light Cycler 480 II instrument from Roche Applied Science. […] Sypro Orange was purchased from Invitrogen as a 5000 × stock solution (concentration not specified by vendor) and was diluted 1:1000 to yield a 5 × working concentration. The temperature scan curves were fitted to a Boltzmann sigmoid function, and the Tm values were obtained from the midpoint of the transition.

PRDM1 = PRDM1 (Homo sapiens, UniProt O75626); experiment: DSF thermal stabilisation, PRDM selectivity; type: binding; settings: 250 µM MRK-740; 2 mM SAM
PRDM1, sequence (O75626 whole entry): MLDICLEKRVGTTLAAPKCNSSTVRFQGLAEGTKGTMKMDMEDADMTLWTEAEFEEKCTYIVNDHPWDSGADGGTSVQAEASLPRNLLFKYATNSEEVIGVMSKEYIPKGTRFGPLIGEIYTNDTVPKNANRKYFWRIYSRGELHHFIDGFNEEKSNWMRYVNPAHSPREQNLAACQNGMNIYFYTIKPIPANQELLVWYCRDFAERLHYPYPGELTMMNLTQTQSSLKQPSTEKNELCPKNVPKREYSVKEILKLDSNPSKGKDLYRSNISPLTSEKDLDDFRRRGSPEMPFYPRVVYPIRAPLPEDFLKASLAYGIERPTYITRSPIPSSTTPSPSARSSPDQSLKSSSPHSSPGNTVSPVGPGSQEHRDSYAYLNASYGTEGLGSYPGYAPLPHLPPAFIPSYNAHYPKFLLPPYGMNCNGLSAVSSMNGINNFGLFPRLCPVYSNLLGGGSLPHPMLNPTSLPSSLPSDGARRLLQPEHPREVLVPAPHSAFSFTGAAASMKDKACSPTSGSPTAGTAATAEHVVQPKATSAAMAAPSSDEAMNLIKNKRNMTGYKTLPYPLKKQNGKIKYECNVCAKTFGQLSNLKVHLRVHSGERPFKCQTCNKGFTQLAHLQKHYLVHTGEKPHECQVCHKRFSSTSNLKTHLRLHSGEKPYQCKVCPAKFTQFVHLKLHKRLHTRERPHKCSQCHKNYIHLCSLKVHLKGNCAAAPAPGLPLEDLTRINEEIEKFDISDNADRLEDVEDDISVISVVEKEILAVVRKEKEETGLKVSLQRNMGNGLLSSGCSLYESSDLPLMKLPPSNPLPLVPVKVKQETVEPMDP
Method: (§1) DSF measurements were performed as previously described[21] using a Light Cycler 480 II instrument from Roche Applied Science. All proteins tested in these selectivity experiments were used at final concentration of 0.02 mg mL^−1 in a 0.1 M HEPES, pH 7.5 and 150 mM NaCl buffer in the presence of 2 mM SAM. Sypro Orange was purchased from Invitrogen as a 5000 × stock solution (concentration not specified by vendor) and was diluted 1:1000 to yield a 5 × working concentration. The temperature scan curves were fitted to a Boltzmann sigmoid function, and the Tm values were obtained from the midpoint of the transition.

PRDM10 = PRDM10 (Homo sapiens, UniProt Q9NQV6); experiment: DSF thermal stabilisation, PRDM selectivity; type: binding; settings: 250 µM MRK-740; 2 mM SAM
Method: as §1

PRDM16 = PRDM16 (Homo sapiens, UniProt Q9HAZ2); experiment: DSF thermal stabilisation, PRDM selectivity; type: binding; settings: 250 µM MRK-740; 2 mM SAM
PRDM16, sequence (Q9HAZ2 whole entry): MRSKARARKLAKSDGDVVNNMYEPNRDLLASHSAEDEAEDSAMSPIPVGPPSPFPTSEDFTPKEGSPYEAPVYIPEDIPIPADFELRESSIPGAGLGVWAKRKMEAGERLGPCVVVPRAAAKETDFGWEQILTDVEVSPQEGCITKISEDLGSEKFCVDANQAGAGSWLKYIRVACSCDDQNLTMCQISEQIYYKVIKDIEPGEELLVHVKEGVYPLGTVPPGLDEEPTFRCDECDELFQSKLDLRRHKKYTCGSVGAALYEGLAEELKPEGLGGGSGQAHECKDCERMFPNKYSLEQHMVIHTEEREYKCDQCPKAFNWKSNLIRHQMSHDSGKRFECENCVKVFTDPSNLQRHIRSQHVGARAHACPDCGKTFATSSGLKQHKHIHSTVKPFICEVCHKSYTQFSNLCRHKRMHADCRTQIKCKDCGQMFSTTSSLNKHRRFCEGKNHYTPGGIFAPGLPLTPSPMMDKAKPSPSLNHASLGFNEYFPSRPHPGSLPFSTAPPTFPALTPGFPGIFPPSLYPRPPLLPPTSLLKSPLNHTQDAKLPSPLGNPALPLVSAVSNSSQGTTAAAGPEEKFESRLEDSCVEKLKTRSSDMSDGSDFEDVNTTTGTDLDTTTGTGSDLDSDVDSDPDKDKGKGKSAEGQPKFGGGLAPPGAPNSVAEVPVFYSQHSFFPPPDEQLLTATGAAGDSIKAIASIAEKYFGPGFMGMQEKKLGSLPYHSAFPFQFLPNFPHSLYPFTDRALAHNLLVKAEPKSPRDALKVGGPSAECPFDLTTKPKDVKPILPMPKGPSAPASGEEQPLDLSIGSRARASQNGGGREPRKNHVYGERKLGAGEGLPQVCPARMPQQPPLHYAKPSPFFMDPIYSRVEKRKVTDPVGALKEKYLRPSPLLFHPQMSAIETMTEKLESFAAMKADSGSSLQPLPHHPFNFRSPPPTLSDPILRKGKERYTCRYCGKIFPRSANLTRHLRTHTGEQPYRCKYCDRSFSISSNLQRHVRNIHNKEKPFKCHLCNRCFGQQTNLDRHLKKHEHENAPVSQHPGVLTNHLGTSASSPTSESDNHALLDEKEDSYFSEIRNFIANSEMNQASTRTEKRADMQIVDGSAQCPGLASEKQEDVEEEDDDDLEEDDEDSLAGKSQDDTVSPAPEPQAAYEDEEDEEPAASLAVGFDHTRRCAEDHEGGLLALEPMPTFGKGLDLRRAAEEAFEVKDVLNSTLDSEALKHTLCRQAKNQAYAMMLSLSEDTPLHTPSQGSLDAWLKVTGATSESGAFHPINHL
Method: as §1

PRDM2 = PRDM2 (Homo sapiens, UniProt Q13029); experiment: DSF thermal stabilisation, PRDM selectivity; type: binding; settings: 250 µM MRK-740; 2 mM SAM
Method: as §1

PRDM3 = PRDM3 (Homo sapiens, UniProt Q03112); experiment: DSF thermal stabilisation, PRDM selectivity; type: binding; settings: 250 µM MRK-740; 2 mM SAM
PRDM3, sequence (Q03112 whole entry): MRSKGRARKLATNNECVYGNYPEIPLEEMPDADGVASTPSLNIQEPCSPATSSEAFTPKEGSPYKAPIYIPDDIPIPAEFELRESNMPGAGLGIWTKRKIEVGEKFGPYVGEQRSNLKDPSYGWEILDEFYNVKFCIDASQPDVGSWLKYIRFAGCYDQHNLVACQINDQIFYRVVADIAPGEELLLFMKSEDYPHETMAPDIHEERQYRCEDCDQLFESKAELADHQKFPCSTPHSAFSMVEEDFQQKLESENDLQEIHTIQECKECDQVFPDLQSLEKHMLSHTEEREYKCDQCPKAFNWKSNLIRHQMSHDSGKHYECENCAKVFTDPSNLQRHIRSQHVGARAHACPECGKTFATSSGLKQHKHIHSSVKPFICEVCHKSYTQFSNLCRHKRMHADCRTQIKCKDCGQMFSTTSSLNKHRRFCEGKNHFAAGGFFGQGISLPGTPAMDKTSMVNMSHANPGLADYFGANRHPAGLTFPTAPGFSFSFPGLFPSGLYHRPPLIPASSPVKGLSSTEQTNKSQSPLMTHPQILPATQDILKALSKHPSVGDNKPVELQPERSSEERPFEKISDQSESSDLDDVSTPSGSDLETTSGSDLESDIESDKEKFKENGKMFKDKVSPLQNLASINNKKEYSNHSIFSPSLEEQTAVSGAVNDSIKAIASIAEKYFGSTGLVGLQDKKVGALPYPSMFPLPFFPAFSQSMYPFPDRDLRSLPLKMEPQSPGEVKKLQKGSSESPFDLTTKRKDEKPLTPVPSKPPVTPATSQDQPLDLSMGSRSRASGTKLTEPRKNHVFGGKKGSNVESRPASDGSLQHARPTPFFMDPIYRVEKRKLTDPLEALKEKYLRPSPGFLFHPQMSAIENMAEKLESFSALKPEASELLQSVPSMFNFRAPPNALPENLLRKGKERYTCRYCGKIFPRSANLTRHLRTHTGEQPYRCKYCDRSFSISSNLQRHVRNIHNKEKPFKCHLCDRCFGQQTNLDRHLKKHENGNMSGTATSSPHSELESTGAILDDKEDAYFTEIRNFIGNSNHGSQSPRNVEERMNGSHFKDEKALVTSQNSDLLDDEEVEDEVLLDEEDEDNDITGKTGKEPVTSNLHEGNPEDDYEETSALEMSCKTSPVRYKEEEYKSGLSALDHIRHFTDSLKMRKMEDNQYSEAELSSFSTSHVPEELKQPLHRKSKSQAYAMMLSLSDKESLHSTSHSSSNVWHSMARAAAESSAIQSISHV
Method: as §1

PRDM6 = PRDM6 (Homo sapiens, UniProt Q9NQX0); experiment: DSF thermal stabilisation, PRDM selectivity; type: binding; settings: 250 µM MRK-740; 2 mM SAM
PRDM6, sequence (Q9NQX0 whole entry): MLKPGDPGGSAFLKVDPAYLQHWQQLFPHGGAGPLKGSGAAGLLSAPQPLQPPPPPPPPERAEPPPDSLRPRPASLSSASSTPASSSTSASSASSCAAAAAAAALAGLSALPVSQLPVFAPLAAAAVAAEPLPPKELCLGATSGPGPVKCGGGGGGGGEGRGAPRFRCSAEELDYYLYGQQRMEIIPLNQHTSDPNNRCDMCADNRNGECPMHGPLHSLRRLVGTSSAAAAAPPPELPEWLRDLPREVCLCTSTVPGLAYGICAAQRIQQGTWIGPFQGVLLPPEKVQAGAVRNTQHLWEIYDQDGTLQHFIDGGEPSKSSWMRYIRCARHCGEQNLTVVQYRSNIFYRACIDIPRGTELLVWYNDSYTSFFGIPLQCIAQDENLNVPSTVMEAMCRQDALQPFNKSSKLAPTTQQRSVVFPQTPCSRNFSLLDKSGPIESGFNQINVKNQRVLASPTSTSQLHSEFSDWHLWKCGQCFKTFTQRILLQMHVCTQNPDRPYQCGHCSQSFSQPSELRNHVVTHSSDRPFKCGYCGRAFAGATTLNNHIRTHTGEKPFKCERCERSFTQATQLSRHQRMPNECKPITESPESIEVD
Method: as §1

PRDM8 = PRDM8 (Homo sapiens, UniProt Q9NQV8); experiment: DSF thermal stabilisation, PRDM selectivity; type: binding; settings: 250 µM MRK-740; 2 mM SAM
Method: as §1

PRDM9 [2] = molecular target: T1, PRDM9; experiment: PRDM9 cellular assay: H3K4me3 of exogenous H3-GFP in MCF7 cells (western blot); type: cell-based; settings: for H3K4me3/GFP - western blot: MCF7, 20 h, replicates
Method: HEK293T (kind gift from Sam Benchimol, York University), or MCF7 (ATCC® HTB-22™), cells were plated (12 well plates) and next day co-transfected with 0.1 (HEK293T) or 0.2 (MCF7) µg of GFP-tagged histone H3 and with 0.1 (HEK293T) or 0.2 (MCF7) µg of Flag-tagged PRDM9/PRDM9 catalytic mutant (Y357S) and 0.8 or 0.6 µg of empty vector using JetPRIME® transfection reagent, following manufacturer instructions. After 4 h media was removed and cells were treated with compounds for 20 h. Next day, cells were lysed in lysis buffer (20 mM Tris-HCl pH 8, 150 mM NaCl, 1 mM EDTA, 10 mM MgCl2, 0.5% TritonX-100, 12.5 U mL^−1 benzonase (Sigma), complete EDTA-free protease inhibitor cocktail (Roche)). After 2 min incubation at RT, SDS was added to final 1% concentration. Cell lysates were analyzed in western blot for GFP and H3K4me3 levels. All cell lines were mycoplasma negative, as determined by MycoAlert™ Mycoplasma Detection Kit (Lonza).
Total cell lysates were resolved in 4–12% Bis-Tris Protein Gels (Invitrogen) and transferred in for 1.5 h (80 V) onto PVDF membrane (Millipore) in Tris-Glycine transfer buffer containing 20% MeOH and 0.05% SDS. Blots were blocked for 1 h in blocking buffer (5% milk in PBS) and incubated with primary antibodies anti-GFP (1:3000, Clontech # 632381), anti-H3K4me3 (1:1000, Millipore, #04-745), anti-histone H3 (1:2000, #ab10799, Abcam), anti-Flag (1:5000, #F4799, Sigma) in blocking buffer (5% BSA in 0.1% Tween 20 PBS) overnight at 4 °C. After five washes with 0.1% Tween 20 PBS the blots were incubated with goat-anti rabbit (IR800) and donkey anti-mouse (IR 680) antibodies (1:5000) in Odyssey Blocking Buffer (LiCor) for 1 h at RT and washed five times with 0.1% Tween 20 PBS. The signal was read on an Odyssey scanner (LiCor) at 800 nm and 700 nm and analyzed with Image Studio Ver.5.2 software. […]
exogenous histone H3 in MCF7 cells. […]
dependent K4 trimethylation of exogenous histone H3 in MCF7 cells. Cells were co-transfected with H3-GFP and PRDM9-FLAG and treated with compounds at indicated concentrations for 20 h. (b) The graph represents non-linear fit of H3K4me3 fluorescence intensities normalized to intensities of GFP. The results are from two independent experiments (n=2). Source data are provided as a Source Data file.
(1 picture or pasted object on this page, not shown here)

[3] = MRK-740 0.244141 uM, in the absence of SAM
[4] = MRK-740 0.244141 uM, in the presence of 2 mM of SAM
[5] = MRK-740 0.488281 uM, in the absence of SAM
[6] = MRK-740 0.488281 uM, in the presence of 2 mM of SAM
[7] = MRK-740 0.976563 uM, in the absence of SAM
[8] = MRK-740 0.976563 uM, in the presence of 2 mM of SAM
[9] = MRK-740 1.95312 uM, in the absence of SAM
[10] = MRK-740 1.95312 uM, in the presence of 2 mM of SAM
[11] = MRK-740 3.90625 uM, in the absence of SAM
[12] = MRK-740 3.90625 uM, in the presence of 2 mM of SAM
[13] = MRK-740 7.8125 uM, in the absence of SAM
[14] = MRK-740 7.8125 uM, in the presence of 2 mM of SAM
[15] = MRK-740 15.625 uM, in the absence of SAM
[16] = MRK-740 15.625 uM, in the presence of 2 mM of SAM
[17] = MRK-740 31.25 uM, in the absence of SAM
[18] = MRK-740 31.25 uM, in the presence of 2 mM of SAM
[19] = MRK-740 62.5 uM, in the absence of SAM
[20] = MRK-740 62.5 uM, in the presence of 2 mM of SAM
[21] = MRK-740 125 uM, in the absence of SAM
[22] = MRK-740 125 uM, in the presence of 2 mM of SAM
[23] = MRK-740 250 uM, in the absence of SAM
[24] = MRK-740 250 uM, in the presence of 2 mM of SAM
[25] = MRK-740 500 uM, in the absence of SAM
[26] = MRK-740 500 uM, in the presence of 2 mM of SAM

T1 sequence (Q9NQV7 whole entry): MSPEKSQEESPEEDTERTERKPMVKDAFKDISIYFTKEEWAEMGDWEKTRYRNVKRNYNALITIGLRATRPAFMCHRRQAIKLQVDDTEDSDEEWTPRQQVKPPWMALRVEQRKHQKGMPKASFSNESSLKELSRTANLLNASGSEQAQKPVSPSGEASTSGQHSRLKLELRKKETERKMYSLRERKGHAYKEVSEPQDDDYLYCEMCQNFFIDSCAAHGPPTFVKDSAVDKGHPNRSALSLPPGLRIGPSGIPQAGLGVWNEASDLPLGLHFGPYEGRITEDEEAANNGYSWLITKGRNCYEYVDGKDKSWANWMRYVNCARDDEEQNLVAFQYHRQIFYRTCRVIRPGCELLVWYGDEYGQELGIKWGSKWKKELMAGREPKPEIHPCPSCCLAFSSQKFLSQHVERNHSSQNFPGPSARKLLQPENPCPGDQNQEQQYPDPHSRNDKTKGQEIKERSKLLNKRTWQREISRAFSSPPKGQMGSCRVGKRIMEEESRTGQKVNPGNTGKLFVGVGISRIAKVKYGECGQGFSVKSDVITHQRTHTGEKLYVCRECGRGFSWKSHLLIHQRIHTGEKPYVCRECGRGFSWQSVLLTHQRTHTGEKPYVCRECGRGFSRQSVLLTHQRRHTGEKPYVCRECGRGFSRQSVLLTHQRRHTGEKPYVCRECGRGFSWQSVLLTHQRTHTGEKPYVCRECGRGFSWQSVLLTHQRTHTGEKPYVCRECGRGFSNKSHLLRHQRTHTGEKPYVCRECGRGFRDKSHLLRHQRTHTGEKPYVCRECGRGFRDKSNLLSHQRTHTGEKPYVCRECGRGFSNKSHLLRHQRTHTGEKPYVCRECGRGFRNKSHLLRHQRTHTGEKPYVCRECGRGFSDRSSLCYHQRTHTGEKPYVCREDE

With COc1cc(OC)cc(-c2noc(N3CCN(C)C4(CCN(c5ccnc(C)c5)CC4)C3)n2)c1 [MRK-740] the “∆Tm, Average (n=3)” value (PRDM9 [1]; [3]) was -0.02041 ⁰C, the “∆Tm, replicates” value (PRDM9 [1]; [3]) was 0.1071 ⁰C and -0.1796 ⁰C and 0.01126 ⁰C and the “∆Tm, Average (n=3)” value (PRDM9 [1]; [4]) was 0.008307 ⁰C. For the same molecule, the “∆Tm, replicates” value (PRDM9 [1]; [4]) was 0.03434 ⁰C and -0.02437 ⁰C and 0.01495 ⁰C, the “∆Tm, Average (n=3)” value (PRDM9 [1]; [5]) was 0.01061 ⁰C and the “∆Tm, replicates” value (PRDM9 [1]; [5]) was 0.0928 ⁰C and -0.07107 ⁰C and 0.01011 ⁰C. The “∆Tm, Average (n=3)” value (PRDM9 [1]; [6]) was 0.1496 ⁰C, the “∆Tm, replicates” value (PRDM9 [1]; [6]) was 0.1732 ⁰C and 0.04052 ⁰C and 0.2352 ⁰C and the “∆Tm, Average (n=3)” value (PRDM9 [1]; [7]) was 0.04508 ⁰C. The “∆Tm, replicates” value (PRDM9 [1]; [7]) was 0.1528 ⁰C and -0.2157 ⁰C and 0.1982 ⁰C, the “∆Tm, Average (n=3)” value (PRDM9 [1]; [8]) was 0.2255 ⁰C and the “∆Tm, replicates” value (PRDM9 [1]; [8]) was 0.2233 ⁰C and 0.03455 ⁰C and 0.4187 ⁰C. For the same molecule, the “∆Tm, Average (n=3)” value (PRDM9 [1]; [9]) was -0.08242 ⁰C, the “∆Tm, replicates” value (PRDM9 [1]; [9]) was -0.00371 ⁰C and -0.4167 ⁰C and 0.1731 ⁰C and the “∆Tm, Average (n=3)” value (PRDM9 [1]; [10]) was 0.4191 ⁰C. The “∆Tm, replicates” value (PRDM9 [1]; [10]) was 0.4623 ⁰C and 0.3242 ⁰C and 0.4707 ⁰C, the “∆Tm, Average (n=3)” value (PRDM9 [1]; [11]) was -0.01426 ⁰C and the “∆Tm, replicates” value (PRDM9 [1]; [11]) was 0.02232 ⁰C and -0.1544 ⁰C and 0.08926 ⁰C. For the same molecule, the “∆Tm, Average (n=3)” value (PRDM9 [1]; [12]) was 0.7764 ⁰C, the “∆Tm, replicates” value (PRDM9 [1]; [12]) was 0.7056 ⁰C and 0.7972 ⁰C and 0.8264 ⁰C and the “∆Tm, Average (n=3)” value (PRDM9 [1]; [13]) was 0.1037 ⁰C. The “∆Tm, replicates” value (PRDM9 [1]; [13]) was 0.226 ⁰C and -0.09012 ⁰C and 0.1752 ⁰C, the “∆Tm, Average (n=3)” value (PRDM9 [1]; [14]) was 1.337 ⁰C and the “∆Tm, replicates” value (PRDM9 [1]; [14]) was 1.344 ⁰C and 1.221 ⁰C and 1.444 ⁰C. For the same molecule, the “∆Tm, Average (n=3)” value (PRDM9 [1]; [15]) was -0.1063 ⁰C, the “∆Tm, replicates” value (PRDM9 [1]; [15]) was -0.01797 ⁰C and -0.3914 ⁰C and 0.09041 ⁰C and the “∆Tm, Average (n=3)” value (PRDM9 [1]; [16]) was 1.956 ⁰C. The “∆Tm, replicates” value (PRDM9 [1]; [16]) was 2.017 ⁰C and 1.819 ⁰C and 2.032 ⁰C, the “∆Tm, Average (n=3)” value (PRDM9 [1]; [17]) was 0.1387 ⁰C and the “∆Tm, replicates” value (PRDM9 [1]; [17]) was 0.3126 ⁰C and 0.00612 ⁰C and 0.09739 ⁰C. For the same molecule, the “∆Tm, Average (n=3)” value (PRDM9 [1]; [18]) was 2.652 ⁰C, the “∆Tm, replicates” value (PRDM9 [1]; [18]) was 2.731 ⁰C and 2.527 ⁰C and 2.698 ⁰C and the “∆Tm, Average (n=3)” value (PRDM9 [1]; [19]) was 0.1127 ⁰C. For the same molecule, the “∆Tm, replicates” value (PRDM9 [1]; [19]) was 0.2122 ⁰C and -0.02556 ⁰C and 0.1514 ⁰C, the “∆Tm, Average (n=3)” value (PRDM9 [1]; [20]) was 3.593 ⁰C and the “∆Tm, replicates” value (PRDM9 [1]; [20]) was 3.459 ⁰C and 3.608 ⁰C and 3.713 ⁰C. The “∆Tm, Average (n=3)” value (PRDM9 [1]; [21]) was 0.3345 ⁰C, the “∆Tm, replicates” value (PRDM9 [1]; [21]) was 0.254 ⁰C and 0.2924 ⁰C and 0.4572 ⁰C and the “∆Tm, Average (n=3)” value (PRDM9 [1]; [22]) was 4.481 ⁰C. For the same molecule, the “∆Tm, replicates” value (PRDM9 [1]; [22]) was 4.418 ⁰C and 4.4008 ⁰C and 4.624 ⁰C, the “∆Tm, Average (n=3)” value (PRDM9 [1]; [23]) was 0.7417 ⁰C and the “∆Tm, replicates” value (PRDM9 [1]; [23]) was 0.7489 ⁰C and 0.7435 ⁰C and 0.7328 ⁰C. The “∆Tm, Average (n=3)” value (PRDM9 [1]; [24]) was 5.104 ⁰C, the “∆Tm, replicates” value (PRDM9 [1]; [24]) was 5.051 ⁰C and 5.067 ⁰C and 5.196 ⁰C and the “∆Tm, Average (n=3)” value (PRDM9 [1]; [25]) was 1.354 ⁰C. For the same molecule, the “∆Tm, replicates” value (PRDM9 [1]; [25]) was 1.288 ⁰C and 1.351 ⁰C and 1.422 ⁰C, the “∆Tm, Average (n=3)” value (PRDM9 [1]; [26]) was 5.9348 ⁰C and the “∆Tm, replicates” value (PRDM9 [1]; [26]) was 5.8495 ⁰C and 5.999 ⁰C and 5.956 ⁰C. The “∆ Tm (°C), DSF” value (PRDM1) was -0.458 °C, the “∆ Tm (°C), DSF” value (PRDM10) was -0.4 °C and the “∆ Tm (°C), DSF” value (PRDM16) was -0.225 °C. The “∆ Tm (°C), DSF” value (PRDM2) was -1.1 °C, the “∆ Tm (°C), DSF” value (PRDM3) was -1.3 °C and the “∆ Tm (°C), DSF” value (PRDM6) was -0.633 °C. The “∆ Tm (°C), DSF” value (PRDM8) was 1.4 °C, the “H3K4me3/GFP - western blot” value (PRDM9 [2]; 0.256 µM) was 72.3313 % control and 76.4161 % control and the “H3K4me3/GFP - western blot” value (PRDM9 [2]; 0.64 µM) was 45.8788 % control and 51.2576 % control. The “H3K4me3/GFP - western blot” value (PRDM9 [2]; 1.6 µM) was 25.9658 % control and 41.0483 % control, the “H3K4me3/GFP - western blot” value (PRDM9 [2]; 4 µM) was 12.0678 % control and 16.7081 % control and the “H3K4me3/GFP - western blot” value (PRDM9 [2]; 10 µM) was 8.819 % control and 7.277 % control. The “Inhibition of H3K4 methylation in MCF7 cells, compared with HEK293T (in words)” value (PRDM9 [2]; 20 h) was “equipotent inhibitor of H3K4 methylation”.
